# US20140031275A1, “METHODS OF ERADICATING BACTERIAL CELL POPULATIONS” (priority 2011, published 2014)
# What was measured:
# [1] = from literature, healthy volunteers; cited from earlier work
# [2] = tested on: stationary state S. aureus SA113; assay: Antibiotic action against stationary state S. aureus SA113 (MSSA), cfu counts; type: cell-based; details: for effect on stationary population of S. aureus cells: antibiotic alone, 5-day incubation, FIG. 1
# Method: FIG. 1 is a graph showing antibiotic action against stationary state S. aureus. SA113.
# (§1) Referring to FIG. 1, antibiotic action against stationary state S. aureus. SA113, an MSSA commonly used as a S. aureus model strain, was evaluated. S. aureus SA113 was grown in Mueller-Hinton broth for 24 hours. Antibiotics were added at day 0. Time-points were taken every 24 hours. 100 μl of culture was removed, centrifuged for one minute, and the cells were resuspended in PBS. Serial dilutions from neat to 10^−6 were spotted on MHA plates and incubated overnight at 37° C. The results shown in FIG. 1 are the averages of three independent experiments.
# stationary S. aureus = details: high concentrations (24 μg/ml); sterilization not reported; cited from earlier work
# S. aureus = assay: MIC against S. aureus; type: cell-based
# Method: as §1
# [3] = tested on: stationary MRSA 37 culture; type: cell-based, S. aureus
# Method: Black line represents the limit of detection
# The ability of ADEP 10c to kill an S. aureus MRSA strain was also evaluated.
# (§2) Resistance to methicillin and oxacillin is the hallmark of MRSA.
# MRSA strain = assay: Oxacillin MIC of MRSA strain; type: cell-based, S. aureus; details: Staphylococcus aureus
# Description: as §2
compound,measurement,setting,value
CC(=O)NC[C@H]1CN(c2ccc(N3CCOCC3)c(F)c2)C(=O)O1 [linezolid],clinically achievable concentrations,[1],14.5 µg/mL
same,effect on stationary population of S. aureus cells,[2],little effect
CCCCCCCCCC(=O)N[C@@H](Cc1c[nH]c2ccccc12)C(=O)N[C@H](CC(N)=O)C(=O)N[C@@H](CC(=O)O)C(=O)N[C@@H]1C(=O)NCC(=O)N[C@@H](CCCN)C(=O)N[C@@H](CC(=O)O)C(=O)N[C@H](C)C(=O)N[C@@H](CC(=O)O)C(=O)NCC(=O)N[C@H](CO)C(=O)N[C@@H]([C@H](C)CC(=O)O)C(=O)N[C@@H](CC(=O)c2ccccc2N)C(=O)O[C@@H]1C [Daptomycin],activity against stationary S. aureus,stationary S. aureus,some activity
O=C(O)c1cn(C2CC2)c2cc(N3CCNCC3)c(F)cc2c1=O [ciprofloxacin],effect on stationary population of S. aureus cells,[2],little effect
"L-proline, 3-fluoro-N-[(2E)-1-oxo-2-hepten-1-yl]-L-phenylalanyl-L-seryl-L-prolyl-(2S)-4-methyl-2-piperidinecarbonyl-L-alanyl-, (6→2)-lactone [ADEP 10c]",MIC,S. aureus; S. aureus,5 µg/mL
same,MIC,S. aureus; tested with a variety of MSSA and MRSA isolates,5 µg/mL
same,cell numbers of the stationary population,[2],about 10^4 per ml
same,"killing of stationary cells, ADEP 10c compared with ADEP 4",[2],more efficacious at killing stationary cells
CO[C@H]1/C=C/O[C@@]2(C)Oc3c(C)c(O)c4c(O)c(c(/C=N/N5CCN(C)CC5)c(O)c4c3C2=O)NC(=O)/C(C)=C\C=C\[C@H](C)[C@H](O)[C@@H](C)[C@@H](O)[C@@H](C)[C@H](OC(C)=O)[C@@H]1C [rifampicin],clinically achievable concentrations,[1],7.2 µg/mL
Cc1onc(-c2ccccc2)c1C(=O)N[C@@H]1C(=O)N2[C@@H]1SC(C)(C)[C@@H]2C(=O)O [oxacillin],killing of clpP mutants of MRSA,[3],killed clpP mutants of MRSA
same,killing of stationary MRSA cells,[3]; oxacillin alone,no effect
same,clinically achievable concentrations,[1],16 µg/mL
same,effect on stationary population of S. aureus cells,[2],little effect
same,MIC,MRSA strain,> 75 µg/mL
